Reference: patent US10537525B2, “Methods and materials for delivering agents to liver tissue” (Mayo Foundation for Medical Education and Research, priority 2015, dated 2020)

Legend:
in vivo [1] = conditions: pig, intravenous, 100 mg
Experimental: (§1) The following was performed to assess the use of endoscopic ultrasound-guided portal vein injection of doxorubicin loaded microbeads to achieve increased intrahepatic concentrations of doxorubicin while decreasing systemic doxorubicin exposure.
(§2) Endoscopic ultrasound-guided portal vein injections were administered to 8 anesthetized 35 kg pigs transgastrically using a linear array echoendoscope and a 22 gauge fine-needle aspiration needle. Briefly, an Olympus linear array echoendoscope was inserted perorally to the stomach. The portal vein was identified by location, appearance, and pulse-wave Dopper signature. A 22 gauge fine-needle aspiration needle (Cook Medical) was advanced transgastrically into the portal vein.
(§3) In 4 animals, doxorubicin (100 mg) loaded onto 75-150 micron LC Beads® (Biocompatibles UK LTD) was injected. In 4 animals, saline was injected into the portal vein, and unloaded doxorubicin (100 mg) was injected into the jugular vein. Plasma was collected at baseline and every 15 minutes for one hour. At 1 hour, laparotomy was performed, and liver and heart samples were obtained and frozen. Bone marrow aspirates were obtained at one hour from the right anterior tibia. Doxorubicin concentrations were determined using LC/MS.

in vivo [2] = conditions: male, pig, intravenous, 50 mg
Experimental: The aim was to determine 7-day safety, toxicity, and drug levels in the survival porcine model of endoscopic ultrasound-guided injections using irinotecan and doxorubicin loaded onto microbeads, as compared with systemic injection.
Sixteen anesthetized 35 kg male pigs were treated with 50 mg of either irinotecan (n=8) or doxorubicin (n=8). […] Within each drug group, half (n=4) were treated with endoscopic ultrasound-guided injections using 75-150 micron LC Beads (Biocompatibles) or endoscopic ultrasound-guided injection of drug not loaded onto microbeads into the IVC, using 22g endoscopic ultrasound needles via a transgastric approach. Each animal received only one drug by one route. Animals were observed twice daily for 7 days for clinical signs of toxicity. Whole blood for cell counts and plasma chemistries were obtained at baseline and at 7 days. […] 7 day drug levels were measured by LC-mass spectometry on plasma, bone marrow, liver and heart.

[3] = control: unloaded doxorubicin 100 mg into jugular vein; plasma every 15 min for one hour
Experimental: as §1, §2, §3

[4] = Endoscopic ultrasound-guided portal vein injection of irinotecan loaded microbeads vs jugular vein irinotecan: plasma and tissue concentrations (LC/MS); type: in vivo, pigs; conditions: control: unloaded irinotecan 100 mg into jugular vein; for concentration at 1 h: pig, intravenous
Experimental: Irinotecan and SN-38 (active metabolite) concentrations were determined using LC/MS.

[5] = 50 mg, either group (microbeads portal vein or unloaded drug into IVC)

COc1cccc2c1C(=O)c1c(O)c3c(c(O)c1C2=O)C[C@@](O)(C(=O)CO)C[C@@H]3O[C@H]1C[C@H](N)[C@H](O)[C@H](C)O1 [doxorubicin, (7S,9S)-7-[(2R,4S,5S,6S)-4-amino-5-hydroxy-6-methyloxan-2-yl]oxy-6,9,11-trihydroxy-9-(2-hydroxyacetyl)-4-methoxy-8,10-dihydro-7H-tetracene-5,12-dione]
concentration at 1 h (in vivo [1]; bone marrow): 25 ng/mL
concentration at 1 h (in vivo [1]; heart): 4800 ng/g
concentration at 1 h (in vivo [1]; liver): 6930 ng/g
concentration at 7 days (in vivo [2]; heart): 138 ng/g
concentration at 7 days (in vivo [2]; liver): 151 ng/g
doxorubicin level in bone marrow at 7 days [5]: no drug was detected
doxorubicin level in plasma at 7 days [5]: no drug was detected
Doxorubicin level, Peak Plasma [3]: 2041 ng/mL

CCc1c2c(nc3ccc(OC(=O)N4CCC(N5CCCCC5)CC4)cc13)-c1cc3c(c(=O)n1C2)COC(=O)[C@]3(O)CC [Irinotecan, (S)-4,11-diethyl-3,4,12,14-tetrahydro-4-hydroxy-3,14-dioxo1H-pyrano[3′,4′:6,7]-indolizino[1,2-b]quinolin-9-yl-[1,4′bipiperidine]-1′-carboxylate]
Irinotecan level, Peak Plasma ([4]; plasma every 15 min for one hour): 2762 ng/mL
concentration at 1 h ([4]; bone marrow, at one hour, read-out: Irinotecan level, Bone Marrow): 1700 ng/mL
concentration at 1 h ([4]; skeletal muscle at 1 hour, read-out: Irinotecan level, Muscle): 1060 ng/g
concentration at 1 h ([4]; liver, at 1 hour, read-out: Irinotecan level, Liver): 3690 ng/g
irinotecan level at 7 days (50 mg, any samples (plasma, bone marrow, liver, heart), microbeads portal vein or unloaded drug into IVC): no detectable
SN-38 (active metabolite of irinotecan) level at 7 days (irinotecan 50 mg, any samples (plasma, bone marrow, liver, heart), microbeads portal vein or unloaded drug into IVC): no detectable
